Test results reported in paper PMC3833348 (MedChemComm, 2013).
Values belong to the compound of their own block, whether it stands above or below them.

How the values were obtained:
[1] = Solubility in aqueous buffer; type: physicochemical; conditions: as compared to Aba-C10
P-gp [2] = target: T1, P-gp (Homo sapiens, UniProt P08183); experiment: Substrate accumulation assays in MCF-7/DX1 cells; type: cell-based
P-gp [3] = conditions: cited from earlier work
P-gp [4] = target: T1, P-gp; experiment: Inhibition of P-gp-mediated efflux of NBD-Aba in hCMEC/D3 cells; type: cell-based

T1 sequence (P08183 whole entry): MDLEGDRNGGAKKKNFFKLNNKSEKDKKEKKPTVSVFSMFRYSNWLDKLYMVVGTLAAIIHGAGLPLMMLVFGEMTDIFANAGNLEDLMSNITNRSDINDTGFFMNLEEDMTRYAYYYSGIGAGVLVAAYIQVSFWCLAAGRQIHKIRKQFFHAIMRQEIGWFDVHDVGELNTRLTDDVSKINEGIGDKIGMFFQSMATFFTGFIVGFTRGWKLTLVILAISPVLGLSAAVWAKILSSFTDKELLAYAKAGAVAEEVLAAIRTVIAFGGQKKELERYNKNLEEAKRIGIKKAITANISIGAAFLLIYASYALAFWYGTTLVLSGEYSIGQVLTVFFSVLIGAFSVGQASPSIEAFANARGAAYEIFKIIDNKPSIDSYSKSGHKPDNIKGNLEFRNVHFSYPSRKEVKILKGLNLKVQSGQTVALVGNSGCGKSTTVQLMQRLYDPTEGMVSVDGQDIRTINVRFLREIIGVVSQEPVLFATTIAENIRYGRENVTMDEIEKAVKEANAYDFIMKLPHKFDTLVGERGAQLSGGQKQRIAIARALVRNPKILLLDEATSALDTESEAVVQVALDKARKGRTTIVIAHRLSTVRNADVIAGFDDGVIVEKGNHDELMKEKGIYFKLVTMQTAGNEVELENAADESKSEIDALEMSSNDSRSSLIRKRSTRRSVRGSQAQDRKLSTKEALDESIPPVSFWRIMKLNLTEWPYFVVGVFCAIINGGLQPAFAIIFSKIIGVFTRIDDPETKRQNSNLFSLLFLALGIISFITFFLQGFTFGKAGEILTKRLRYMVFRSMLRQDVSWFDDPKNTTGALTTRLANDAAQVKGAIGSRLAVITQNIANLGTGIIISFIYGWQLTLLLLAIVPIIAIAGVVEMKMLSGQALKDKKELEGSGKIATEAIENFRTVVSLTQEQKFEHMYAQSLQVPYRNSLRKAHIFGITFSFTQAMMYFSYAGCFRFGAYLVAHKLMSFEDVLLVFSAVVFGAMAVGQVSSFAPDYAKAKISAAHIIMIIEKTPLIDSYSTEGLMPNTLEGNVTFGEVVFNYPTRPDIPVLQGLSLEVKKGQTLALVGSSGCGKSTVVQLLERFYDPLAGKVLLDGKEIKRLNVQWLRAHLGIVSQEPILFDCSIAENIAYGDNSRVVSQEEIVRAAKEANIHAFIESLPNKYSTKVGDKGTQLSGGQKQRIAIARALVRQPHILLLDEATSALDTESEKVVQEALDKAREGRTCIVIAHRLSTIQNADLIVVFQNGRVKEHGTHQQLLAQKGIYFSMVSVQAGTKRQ

Solubility in aqueous buffer [1]: more favorable solubility
Fold decrease of potency in MCF-7/DX1 cells versus 12D7-MDR (P-gp [2]; NBD-Aba as substrate): ~6 fold
Fold decrease of potency in MCF-7/DX1 cells versus hCMEC/D3 (P-gp [2]; NBD-Aba as substrate): about 3 fold
Inhibition of efflux of each of the substrates in MCF-7/DX1 cells (P-gp [2]; substrates BODIPY-prazosin, doxorubicin, [3H]-daunomycin and NBD-Aba): effectively inhibit efflux
Compound: Nc1nc(NC2CC2)c2ncn([C@H]3C=C[C@@H](COC(=O)CCCCCCCCC(=O)OC[C@@H]4C=C[C@H](n5cnc6c(NC7CC7)nc(N)nc65)C4)C3)c2n1 [Aba-C8]

Effect on transport in MCF-7/DX1 cells (P-gp [2]; up to a concentration of 100 µM, data not shown): no effect on transport
Compound: Nc1nc(NC2CC2)c2ncn([C@H]3C=C[C@@H](CO)C3)c2n1 [abacavir, reference compound]
Fold increase in brain levels, P-gp-null mice versus wild-type mice (P-gp [3]): 20 fold

Fold more potent than monomeric abacavir (P-gp [4]): greater than 500 fold
Compound: Nc1nc(NC2CC2)c2ncn([C@H]3C=C[C@@H](COC(=O)CCCCCCCCCCC(=O)OC[C@@H]4C=C[C@H](n5cnc6c(NC7CC7)nc(N)nc65)C4)C3)c2n1 [Aba-C10]
